Columns and labels:
[1] = target: T1, Recombinant (1-346) HPK1 (h) (Homo sapiens, UniProt Q92918); assay: HPK1 Human STE Kinase Enzymatic Radiometric Assay; assay type: biochemical; details: read-out: HPK1 IC50 nM Range*
T1 construct: Recombinant (1-346) HPK1 (h) is incubated with 8 mM MOPS pH 7.0
T1 sequence (Q92918 1-346): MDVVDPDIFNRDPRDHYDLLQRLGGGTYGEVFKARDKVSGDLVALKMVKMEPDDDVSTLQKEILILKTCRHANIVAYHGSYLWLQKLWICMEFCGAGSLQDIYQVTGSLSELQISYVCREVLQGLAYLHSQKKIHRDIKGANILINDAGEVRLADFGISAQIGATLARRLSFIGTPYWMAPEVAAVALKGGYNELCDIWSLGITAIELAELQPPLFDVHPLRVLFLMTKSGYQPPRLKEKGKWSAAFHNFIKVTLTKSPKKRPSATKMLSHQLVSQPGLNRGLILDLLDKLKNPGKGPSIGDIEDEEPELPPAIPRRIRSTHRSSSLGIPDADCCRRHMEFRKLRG
Protocol: A stock solution of 10 mM of test compound is prepared in DMSO. The compound plate was prepared by 3-fold and 9-point serial dilutions. […] The reaction is initiated by The addition of the Mg/ATP mix. After incubation for 40 minutes at RT, the reaction is stopped by the addition of phosphoric acid to a concentration of 0.5%.

Lck (h) = Lck (h) (Homo sapiens, UniProt P06239); assay: Lck Human  Kinase Enzymatic Radiometric Assay; assay type: biochemical; details: read-out: Lck IC50 nM Range*
In short: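 Substrate 33P-incorporation measured by scintillation counting after spotting on P30 filtermat and phosphoric acid washes. Human Lck reacted 40 min at RT in 50 mM Tris pH 7.5 with 10 mM MgAcetate, [gamma-33P]-ATP, 250 uM Cdc2 peptide, 0.1 mM EGTA and 0.1 mM Na3VO4.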

Sequence of Lck (h) (P06239 whole entry): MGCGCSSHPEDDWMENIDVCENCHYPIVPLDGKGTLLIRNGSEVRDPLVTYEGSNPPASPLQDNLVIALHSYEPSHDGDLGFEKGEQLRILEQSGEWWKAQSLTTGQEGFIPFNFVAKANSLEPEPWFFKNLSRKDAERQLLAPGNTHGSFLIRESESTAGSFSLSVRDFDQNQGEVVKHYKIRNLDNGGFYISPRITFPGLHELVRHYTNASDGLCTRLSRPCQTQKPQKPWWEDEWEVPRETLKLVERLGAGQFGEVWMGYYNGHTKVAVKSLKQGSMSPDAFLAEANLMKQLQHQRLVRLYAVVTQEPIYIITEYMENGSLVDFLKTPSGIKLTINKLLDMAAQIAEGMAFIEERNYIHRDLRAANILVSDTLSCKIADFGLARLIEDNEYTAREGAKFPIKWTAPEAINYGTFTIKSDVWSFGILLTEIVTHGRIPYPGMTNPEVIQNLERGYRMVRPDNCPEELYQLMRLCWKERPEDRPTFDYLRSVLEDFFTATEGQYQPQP

SMILES | IC50 [1] | IC50 (Lck (h))
CC(C)N1CCN(c2ccc(-c3cc(-c4ccc5c(=O)[nH]ncc5c4)c(N)nc3F)cc2)CC1 [I-363, 6-(2-amino-6-fluoro-5-(4-(4-isopropylpiperazin-1-yl)phenyl)pyridin-3-yl)phthalazin-1(2H)-one] | 11 to 100 nM | > 1000 nM
CC(C)N1CCN(c2ccc(-c3cc(-c4ccc5c(=O)[nH]ccc5c4)c(N)nc3F)cc2)CC1 [I-364, 6-(2-amino-6-fluoro-5-(4-(4-isopropylpiperazin-1-yl)phenyl)pyridin-3-yl)isoquinolin-1(2H)-one] | 0.1 to 10 nM | > 1000 nM
Nc1nc(F)c(-c2ccc(C3CCOCC3)c([C@@H]3CCCN3)c2)cc1-c1ccc2c(c1)CCNC2=O [I-367, (S)-6-(2-amino-6-fluoro-5-(3-(pyrrolidin-2-yl)-4-(tetrahydro-2H-pyran-4-yl)phenyl)pyridin-3-yl)-3,4-dihydroisoquinolin-1(2H)-one] | 0.1 to 10 nM | 101 to 1000 nM
Nc1nc(F)c(-c2ccc(C3CCOCC3)c([C@@H]3CCCN3)c2)cc1-c1cc2c(cc1F)C(=O)NCC2 [I-368, (S)-6-(2-amino-6-fluoro-5-(3-(pyrrolidin-2-yl)-4-(tetrahydro-2H-pyran-4-yl)phenyl)pyridin-3-yl)-7-fluoro-3,4-dihydroisoquinolin-1(2H)-one] | 0.1 to 10 nM | 11 to 100 nM
Nc1nc(F)c(-c2ccc(C3CCOCC3)c([C@@H]3CCCN3)c2)cc1-c1cc(F)c2c(c1)CCNC2=O [I-369, (S)-6-(2-amino-6-fluoro-5-(3-(pyrrolidin-2-yl)-4-(tetrahydro-2H-pyran-4-yl)phenyl)pyridin-3-yl)-8-fluoro-3,4-dihydroisoquinolin-1(2H)-one] | 0.1 to 10 nM | > 1000 nM
Nc1nc(F)c(-c2ccc(C3CCOCC3)c([C@@H]3CCCN3)c2)cc1-c1ccc2c(=O)[nH]ccc2c1 [I-370, (S)-6-(2-amino-6-fluoro-5-(3-(pyrrolidin-2-yl)-4-(tetrahydro-2H-pyran-4-yl)phenyl)pyridin-3-y)isoquinolin-1(2H)-one] | 0.1 to 10 nM | > 1000 nM
CC(C)N1CCN(c2ccc(-c3cc(-c4cc(F)c5c(=O)[nH]ccc5c4)c(N)nc3F)cc2)CC1 [I-372, 6-(2-amino-6-fluoro-5-(4-(4-isopropylpiperazin-1-yl)phenyl)pyridin-3-yl)-8-fluoroisoquinolin-1(2H)-one] | 0.1 to 10 nM | 101 to 1000 nM
CC(C)N1CCN(c2ccc(-c3cc(-c4cc5cc[nH]c(=O)c5cc4F)c(N)nc3F)cc2)CC1 [I-373, 6-(2-amino-6-fluoro-5-(4-(4-isopropylpiperazin-1-yl)phenyl)pyridin-3-yl)-7-fluoroisoquinolin-1(2H)-one] | 0.1 to 10 nM | 11 to 100 nM
Nc1nc(F)c(-c2ccc(N3CCN(CC4CC4)CC3)cc2)cc1-c1ccc2c(=O)[nH]ccc2c1 [I-374, 6-(2-amino-5-(4-(4-(cyclopropylmethyl)piper-azin-1-yl)phenyl)-6-fluoropyridin-3-yl)isoquinolin-1(2H)-one] | 0.1 to 10 nM | > 1000 nM
Nc1nc(F)c(-c2ccc(N3CCN(CC4CC4)CC3)cc2)cc1-c1cc(F)c2c(=O)[nH]ccc2c1 [I-375, 6-(2-amino-5-(4-(4-(cyclopropylmethyl)piper-azin-1-yl)phenyl)-6-fluoropyridin-3-yl)-8-fluoroisoquinolin-1(2H)-one] | 0.1 to 10 nM | > 1000 nM
Nc1nc(F)c(-c2ccc(N3CCN(CC4CC4)CC3)cc2)cc1-c1cc2cc[nH]c(=O)c2cc1F [I-376, 6-(2-amino-5-(4-(4-(cyclopropylmethyl)piper-azin-1-yl)phenyl)-6-fluoropyridin-3-yl)-7-fluoroisoquinolin-1(2H)-one] | 0.1 to 10 nM | > 1000 nM
Cc1cc2cc(-c3cc(-c4ccc(N5CCN(C(C)C)CC5)cc4)c(F)nc3N)ccc2c(=O)[nH]1 [I-377, 6-(2-amino-6-fluoro-5-(4-(4-isoporpylpiperazin-1-yl)phenyl)pyridin-3-yl)-3-methylisoquinolin-1(2H)-one] | 0.1 to 10 nM | 101 to 1000 nM
Cc1c[nH]c(=O)c2ccc(-c3cc(-c4ccc(N5CCN(C(C)C)CC5)cc4)c(F)nc3N)cc12 [I-378, 6-(2-amino-6-fluoro-5-(4-(4-isopropylpiperazin-1-yl)phenyl)pyridin-3-yl)-4-methylisoquinolin-1(2H)-one] | 0.1 to 10 nM | > 1000 nM
CC(C)N1CCN(c2ccc(-c3cc(-c4ccc5c(=O)[nH]cc(F)c5c4)c(N)nc3F)cc2)CC1 [I-379, 6-(2-amino-6-fluoro-5-(4-(4-isopropylpiperazin-1-yl)phenyl)pyridin-3-yl)-4-fluoroisoquinolin-1(2H)-one] | 0.1 to 10 nM | > 1000 nM
Cc1cc2cc(-c3cc(-c4ccc(N5CCN(C(C)C)CC5)cc4)c(F)nc3N)cc(F)c2c(=O)[nH]1 [I-380, 6-(2-amino-6-fluoro-5-(4-(4-isopropylpiperazin-1-yl)phenyl)pyridin-3-yl)-8-fluoro-3-methylisoquinolin-1(2H)-one] | 0.1 to 10 nM | > 1000 nM
Cc1[nH]c(=O)c2ccc(-c3cc(-c4ccc(N5CCN(C(C)C)CC5)cc4)c(F)nc3N)cc2c1F [I-381, 6-(2-amino-6-fluoro-5-(4-(4-isopropylpiperazin-1-yl)phenyl)pyridin-3-yl)-4-fluoro-3-methylisoquinolin-1(2H)-one] | 101 to 1000 nM | > 1000 nM
Nc1nc(F)c(-c2ccc(N3CCN(CCC4CC4)CC3)cc2)cc1-c1cc(F)c2c(c1)CCNC2=O [I-384, 6-(2-amino-5-(4-(4-(2-cyclopropylethyl)piperazin-1-yl)phenyl)-6-fluoropyridin-3-yl)-8-fluoro-3,4-dihydroisoquinolin-1(2H)-one] | 0.1 to 10 nM | 101 to 1000 nM
CC(C)N1CCN(c2ccc(-c3cc(-c4cc(F)c5c(c4)CCNC5=O)c(N)nc3F)cc2F)CC1 [I-386, 6-(2-amino-6-fluoro-5-(3-fluoro-4-(4-isopropylpiperazin-1-yl)phenyl)pyridin-3-yl)-8-fluoro-3,4-dihydroisoquinolin-1(2H)-one] | 0.1 to 10 nM | 0.1 to 10 nM
Nc1nc(F)c(-c2ccc(N3CCN(CCC4CC4)CC3)cc2)cc1-c1ccc2c(=O)[nH]ccc2c1 [I-389, 6-(2-amino-5-(4-(4-(2-cyclopropylethyl)piperazin-1-yl)phenyl)-6-fluoropyridin-3-yl)isoquinolin-1(2H)-one] | 0.1 to 10 nM | > 1000 nM
C[C@H](C1CC1)N1CCN(c2ccc(-c3cc(-c4cc(F)c5c(c4)CCNC5=O)c(N)nc3F)cc2)CC1 [I-390, (R)-6-(2-amino-5-(4-(4-(1-cyclopropylethyl)piperazin-1-yl)phenyl)-6-fluoropyridin-3-yl)-8-fluoro-3,4-dihydroisoquinolin-1(2H)-one] | 0.1 to 10 nM | 101 to 1000 nM
C[C@H](C1CC1)N1CCN(c2ccc(-c3cc(-c4cc(F)c5c(=O)[nH]ccc5c4)c(N)nc3F)cc2)CC1 [I-391, (R)-6-(2-amino-5-(4-(4-(1-cyclopropylethyl)piperazin-1-yl)phenyl)-6-fluoropyridin-3-yl)-8-fluoroisoquinolin-1(2H)-one] | 0.1 to 10 nM | 101 to 1000 nM
C[C@@H](C1CC1)N1CCN(c2ccc(-c3cc(-c4cc(F)c5c(=O)[nH]ccc5c4)c(N)nc3F)cc2)CC1 [I-393, (S)-6-(2-amino-5-(4-(4-(1-cyclopropylethyl)piperazin-1-yl)phenyl)-6-fluoropyridin-3-yl)-8-fluoroisoquinolin-1(2H)-one] | 0.1 to 10 nM | 101 to 1000 nM
CCN1CCN(c2ccc(-c3cc(-c4cc(F)c5c(=O)[nH]ccc5c4)c(N)nc3F)cc2)CC1 [I-394, 6-(2-amino-5-(4-(4-ethylpiperazin-1-yl)phenyl)-6-fluoropyridin-3-yl)-8-fluoroisoquinolin-1(2H)-one] | 0.1 to 10 nM | 101 to 1000 nM
Nc1nc(F)c(-c2ccc(N3CCOCC3)cc2)cc1-c1cc(F)c2c(=O)[nH]ccc2c1 [I-396, 6-(2-amino-6-fluoro-5-(4-morpholinophenyl)pyridin-3-yl)-8-fluoroisoquinolin-1(2H)-one] | 0.1 to 10 nM | > 1000 nM
CC(C)N1CCN(c2ccc(-c3cc(-c4cc5c(cn4)C(=O)NCC5)c(N)nc3F)cc2)CC1 [I-398, 6-(2-amino-6-fluoro-5-(4-(4-isopropylpiperazin-1-yl)phenyl)pyridin-3-yl)-3,4-dihydro-2,7-naphthyridin-1(2H)-one] | 0.1 to 10 nM | 101 to 1000 nM
Nc1nc(F)c(-c2ccc(N3CCN(CC4CC4)CC3)cc2)cc1-c1cc2c(cn1)C(=O)NCC2 [I-400, 6-(2-amino-5-(4-(4-(cyclopropylmethyl)piper-azin-1-yl)phenyl)-6-fluoropyridin-3-yl)-3,4-dihydro-2,7-naphthyridin-1(2H)-one] | 0.1 to 10 nM | 101 to 1000 nM
CC(C)N1CCN(c2ccc(-c3cc(-c4cc5cc[nH]c(=O)c5cn4)c(N)nc3F)cc2)CC1 [I-401, 6-(2-amino-6-fluoro-5-(4-(4-isopropylpiperazin-1-yl)phenyl)pyridin-3-yl)-2,7-naphthyridin-1(2H)-one] | 0.1 to 10 nM | > 1000 nM
